# In patent US8921398B2 (Boehringer Ingelheim International GmbH, priority 2011, dated 2014):
# Molecular target: T1, human GPR119 (Homo sapiens, UniProt Q8TDV5)
# T1 construct: expression vector for human GPR119 cDNA (Acc. No. NP_848566); expressed in transfected cells
# T1 sequence (Q8TDV5 1-335): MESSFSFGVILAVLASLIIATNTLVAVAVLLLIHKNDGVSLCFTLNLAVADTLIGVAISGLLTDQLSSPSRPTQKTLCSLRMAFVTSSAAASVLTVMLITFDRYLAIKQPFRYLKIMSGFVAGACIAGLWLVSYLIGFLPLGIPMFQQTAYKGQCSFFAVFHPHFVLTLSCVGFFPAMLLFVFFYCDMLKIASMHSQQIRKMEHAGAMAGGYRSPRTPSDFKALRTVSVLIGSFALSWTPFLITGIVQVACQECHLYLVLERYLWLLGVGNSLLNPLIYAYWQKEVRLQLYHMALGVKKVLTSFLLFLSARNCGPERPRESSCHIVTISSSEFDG
# Assay: AlphaScreen cAMP assay in MIN6 cells stably transfected with human GPR119
# Format: cell-based
# Details: Min-6/hGPR119 cells, 45 minutes incubation at room temperature
# Protocol: The compounds of formula I according to the invention modulate the activity of the G-protein-coupled receptor GPR119. The effect of the compounds on the activation of GPR119 and on the stimulation of intracellular cAMP concentration is determined using the AlphaScreen cAMP Assay Kit (Cat.No.#6760625R) made by PerkinElmer.
# MIN6 cells [Miyazaki J et al. Endocrinology. 1990 July; 127(1):126-32] are stably transfected with an expression vector for human GPR119 cDNA (Acc. No. NP_848566). Min-6/hGPR119 cells are cultured in DMEM, 10% FBS, 50 μM β-mercaptoethanol, 0.3 mg/mL Geniticin, 2 mM GlutaMAX at 37° C. 5% CO2. For the assay, the cells are seeded in Optiplates (white, 384-well, 160W-barcoded, TC, sterile with lid, Cat.No.#6007688 (Perkin Elmer); 10000 cells/well; 50 μl). The plates covered with lids are then incubated for 24 hours at 37° C./5% CO2. After the medium is aspirated from the wells completely, 10 μl of the test compound are added, the compounds are diluted using stimulating buffer (140 mM NaCl, 3.6 mM KCl, 0.5 mM NaH2PO4, 0.5 mM MgSO4, 1.5 mM CaCl2, 10 mM Hepes, 5 mM NaHCO3; pH 7.4. 0.5 mM IBMX and 0.1% BSA, the final DMSO concentration is 1%). After 45 minutes incubation at room temperature (approx. 20° C.), the cAMP concentrations are determined using the AlphaScreen cAMP Assay Kit (Cat.No.#6760625R from PerkinElmer).
row,EC50 [nM],Structure (SMILES)
1,24,"CCc1cnc(N2CCC(N(C(=O)c3cnc(-c4ccc(S(C)(=O)=O)cc4)nc3)C3CC3)CC2)nc1 [Example 13, 2-(4-Methanesulfonyl-phenyl)-pyrimidine-5-carboxylic acid cyclopropyl-[1-(5-ethyl-pyrimidin-2-yl)-piperidin-4-yl]-amide]"
2,63,"CCc1cnc(N2CCC(N(C(=O)c3cnc(-c4cnco4)cn3)C3CC3)CC2)nc1 [Example 38, 5-Oxazol-5-yl-pyrazine-2-carboxylic acid cyclopropyl-[1-(5-ethyl-pyrimidin-2-yl)-piperidin-4-yl]-amide]"

# The next lines start with the compound.
row,Structure (SMILES),EC50 [nM]
1,"CCCc1noc(N2CCC(N(C(=O)c3cnc(-n4ccnc4C)nc3)C3CC3)CC2)n1 [Example 22, 2-(2-Methyl-imidazol-1-yl)-pyrimidine-5-carboxylic acid cyclopropyl-[1-(3-propyl-[1,2,4]oxadiazol-5-yl)-piperidin-4-yl]-amide]",137
2,"CC(C)c1noc(N2CCC(N(C(=O)c3cc(-c4ccc(C#N)cc4F)no3)C3CC3)CC2)n1 [Example 28, 3-(4-Cyano-2-fluoro-phenyl)-isoxazole-5-carboxylic acid cyclopropyl-[1-(3-isopropyl-[1,2,4]oxadiazol-5-yl)-piperidin-4-yl]-amide]",3
3,"O=C(c1cnc(-n2ccnc2)nc1)N(C1CC1)C1CCN(c2nc(-c3ccccc3)no2)CC1 [Example 1, 2-Imidazol-1-yl-pyrimidine-5-carboxylic acid cyclopropyl-[1-(3-phenyl-[1,2,4]oxadiazol-5-yl)-piperidin-4-yl]-amide]",31
4,"O=C(c1cnc(-n2ccnc2)nc1)N(C1CC1)C1CCN(c2noc(C3CC3)n2)CC1 [Example 25, 2-Imidazol-1-yl-pyrimidine-5-carboxylic acid cyclopropyl-[1-(5-cyclopropyl-[1,2,4]oxadiazol-3-yl)-piperidin-4-yl]-amide]",103
